{"source": "patent US7138361B2", "about": "“Herbicidal heterocycles” (E. I. du Pont de Nemours and Company, priority 2000, dated 2006)", "assay_type_in_all_cases": "in vivo", "key": {"[1]": {"system": "velvetleaf (Abutilon theophrasti)", "assay": "Test B postemergence", "details": "13 to 15 days", "method_in_brief": "(§1)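 Ratings on a 0 to 100 visual scale (100 complete control) compare treated plants with controls 13 to 15 days after application. Treatments were pre- or postemergence sprays of compound in non-phytotoxic solvent with surfactant.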"}, "[2]": {"system": "corn (Zea mays)", "assay": "Test B postemergence", "details": "13 to 15 days", "method_in_brief": "as §1"}, "[3]": {"system": "giant foxtail (Setaria faberii)", "assay": "Test B postemergence", "details": "13 to 15 days", "method_in_brief": "as §1"}, "[4]": {"system": "cocklebur (Xanthium strumarium)", "assay": "Test B postemergence", "details": "13 to 15 days", "method_in_brief": "as §1"}, "[5]": {"system": "wheat (Triticum aestivum)", "assay": "Test B postemergence", "details": "13 to 15 days", "method_in_brief": "as §1"}, "[6]": {"system": "pigweed (Amaranthus retroflexus)", "assay": "Test B postemergence", "details": "13 to 15 days", "method_in_brief": "as §1"}, "[7]": {"system": "wild oat (Avena fatua)", "assay": "Test B postemergence", "details": "13 to 15 days", "method_in_brief": "as §1"}, "[8]": {"system": "crabgrass (Digitaria sanguinalis)", "assay": "Test B postemergence", "details": "13 to 15 days", "method_in_brief": "as §1"}, "[9]": {"system": "Surinam grass (Brachiaria decumbens)", "assay": "Test B postemergence", "details": "13 to 15 days", "method_in_brief": "as §1"}, "[10]": {"system": "barnyardgrass (Echinochloa crus-galli)", "assay": "Test B postemergence", "details": "13 to 15 days", "method_in_brief": "as §1"}, "[11]": {"system": "morning glory (Ipomoea hederacea)", "assay": "Test B postemergence", "details": "13 to 15 days", "method_in_brief": "as §1"}, "[12]": {"system": "Sunflower", "assay": "Test C preemergence", "details": "Rate 500 g/ha, visual evaluation after 12 to 14 days"}, "[13]": {"system": "Nightshade", "assay": "Test C preemergence", "details": "scale 0 to 100, 0 no effect, 100 complete control"}, "[14]": {"system": "velvetleaf (Abutilon theophrasti)", "assay": "Test C preemergence", "details": "preemergence; for Plant response rating, Velvetleaf: scale 0 to 100, 0 no effect, 100 complete control", "method_in_brief": "(§2)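 Response scores (0 no effect to 100 complete control) came from visual comparison with untreated controls 12 to 14 days after treatment. Preemergence application was made to seeded soil; postemergence, to plants at the 1- to 4-leaf stage.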"}, "[15]": {"system": "johnsongrass (Sorghum halepense)", "assay": "Test C preemergence", "details": "for Plant response rating, Johnsongrass: scale 0 to 100, 0 no effect, 100 complete control; for Plant response rating (0 to 100), Johnsongrass: visual evaluation after 12 to 14 days", "method_in_brief": "as §2"}, "[16]": {"system": "yellow nutsedge (Cyperus esculentus)", "assay": "Test C preemergence", "details": "for Plant response rating, Nutsedge: scale 0 to 100, 0 no effect, 100 complete control", "method_in_brief": "as §2"}, "[17]": {"system": "morningglory (Ipomoea hederacea)", "assay": "Test C preemergence", "details": "for Plant response rating, Morningglory: scale 0 to 100, 0 no effect, 100 complete control", "method_in_brief": "as §2"}, "[18]": {"system": "corn (Zea mays)", "assay": "Test C preemergence", "details": "for Plant response rating, Corn: scale 0 to 100, 0 no effect, 100 complete control; for Plant response rating (0 to 100), Corn: visual evaluation after 12 to 14 days", "method_in_brief": "as §2"}, "[19]": {"system": "goosegrass (Eleusine indica)", "assay": "Test C preemergence", "details": "for Plant response rating, Goosegrass: scale 0 to 100, 0 no effect, 100 complete control; for Plant response rating (0 to 100), Goosegrass: visual evaluation after 12 to 14 days", "method_in_brief": "as §2"}, "[20]": {"system": "common ragweed (Ambrosia elatior)", "assay": "Test C preemergence", "details": "preemergence; for Plant response rating, Ragweed, Common: scale 0 to 100, 0 no effect, 100 complete control", "method_in_brief": "as §2"}, "[21]": {"details": "Rate 125 g/ha, scale 0 (no effect) to 100 (complete control)"}, "[22]": {"details": "Rate 500 g/ha, scale 0 to 100, 0 is no effect, 100 is complete control"}, "[23]": {"details": "Rate 500 g/ha, visual evaluation after 12 to 14 days"}, "[24]": {"details": "preemergence, Rate 500 g/ha, visual evaluation after 12 to 14 days"}}}
{"smiles": "CC1(c2ccn(C3SCN(c4cccc(OC(F)(F)F)c4)C3=O)n2)CC1", "note": "(stereo not shown) [Compound 63]", "values": [{"measurement": "Plant response rating, Velvetleaf", "setting": "[1]; [21]", "result": 0}, {"measurement": "Plant response rating, Velvetleaf", "setting": "[1]; [22]", "result": 50}, {"measurement": "Plant response rating, Corn", "setting": "[2]; [21]", "result": 0}, {"measurement": "Plant response rating, Corn", "setting": "[2]; [22]", "result": 0}, {"measurement": "Plant response rating, Foxtail, Giant", "setting": "[3]; [21]", "result": 0}, {"measurement": "Plant response rating, Foxtail, Giant", "setting": "[3]; [22]", "result": 50}, {"measurement": "Plant response rating, Cocklebur", "setting": "[4]; [21]", "result": 0}, {"measurement": "Plant response rating, Cocklebur", "setting": "[4]; [22]", "result": 50}, {"measurement": "Plant response rating, Wheat", "setting": "[5]; [21]", "result": 0}, {"measurement": "Plant response rating, Wheat", "setting": "[5]; [22]", "result": 0}, {"measurement": "Plant response rating, Pigweed", "setting": "[6]; [21]", "result": 50}, {"measurement": "Plant response rating, Pigweed", "setting": "[6]; [22]", "result": 70}, {"measurement": "Plant response rating, Wild Oat", "setting": "[7]; [21]", "result": 0}, {"measurement": "Plant response rating, Wild Oat", "setting": "[7]; [22]", "result": 0}, {"measurement": "Plant response rating, Crabgrass", "setting": "[8]; [21]", "result": 0}, {"measurement": "Plant response rating, Crabgrass", "setting": "[8]; [22]", "result": 60}, {"measurement": "Plant response rating, Surinam grass", "setting": "[9]; [21]", "result": 0}, {"measurement": "Plant response rating, Surinam grass", "setting": "[9]; [22]", "result": 0}, {"measurement": "Plant response rating, Barnyardgrass", "setting": "[10]; [21]", "result": 0}, {"measurement": "Plant response rating, Barnyardgrass", "setting": "[10]; [22]", "result": 60}, {"measurement": "Plant response rating, Morningglory", "setting": "[11]; [21]", "result": 0}, {"measurement": "Plant response rating, Morningglory", "setting": "[11]; [22]", "result": 40}, {"measurement": "Plant response rating (0 to 100), Sunflower", "setting": "[12]", "result": 60}, {"measurement": "Plant response rating, Nightshade", "setting": "[13]; Rate 62 g/ha", "result": 30}, {"measurement": "Plant response rating, Nightshade", "setting": "[13]; Rate 125 g/ha", "result": 60}, {"measurement": "Plant response rating, Nightshade", "setting": "[13]; Rate 250 g/ha", "result": 60}, {"measurement": "Plant response rating (0 to 100), Velvetleaf", "setting": "[14]; [23]", "result": 50}, {"measurement": "Plant response rating, Velvetleaf", "setting": "[14]; Rate 125 g/ha", "result": 0}, {"measurement": "Plant response rating, Velvetleaf", "setting": "[14]; Rate 250 g/ha", "result": 30}, {"measurement": "Plant response rating, Johnsongrass", "setting": "[15]; Rate 62 g/ha", "result": 0}, {"measurement": "Plant response rating (0 to 100), Johnsongrass", "setting": "[15]; preemergence, Rate 250 g/ha", "result": 100}, {"measurement": "Plant response rating (0 to 100), Johnsongrass", "setting": "[15]; preemergence, Rate 500 g/ha", "result": 100}, {"measurement": "Plant response rating, Johnsongrass", "setting": "[15]; preemergence, Rate 125 g/ha", "result": 60}, {"measurement": "Plant response rating, Nutsedge", "setting": "[16]; Rate 62 g/ha", "result": 0}, {"measurement": "Plant response rating (0 to 100), Nutsedge", "setting": "[16]; [24]", "result": 100}, {"measurement": "Plant response rating, Nutsedge", "setting": "[16]; preemergence, Rate 125 g/ha", "result": 0}, {"measurement": "Plant response rating, Nutsedge", "setting": "[16]; preemergence, Rate 250 g/ha", "result": 20}, {"measurement": "Plant response rating, Morningglory", "setting": "[17]; Rate 62 g/ha", "result": 0}, {"measurement": "Plant response rating (0 to 100), Morningglory", "setting": "[17]; [24]", "result": 40}, {"measurement": "Plant response rating, Morningglory", "setting": "[17]; preemergence, Rate 125 g/ha", "result": 20}, {"measurement": "Plant response rating, Morningglory", "setting": "[17]; preemergence, Rate 250 g/ha", "result": 30}, {"measurement": "Plant response rating, Corn", "setting": "[18]; Rate 62 g/ha", "result": 0}, {"measurement": "Plant response rating (0 to 100), Corn", "setting": "[18]; preemergence, Rate 250 g/ha", "result": 20}, {"measurement": "Plant response rating (0 to 100), Corn", "setting": "[18]; preemergence, Rate 500 g/ha", "result": 40}, {"measurement": "Plant response rating, Corn", "setting": "[18]; preemergence, Rate 125 g/ha", "result": 0}, {"measurement": "Plant response rating, Goosegrass", "setting": "[19]; Rate 62 g/ha", "result": 100}, {"measurement": "Plant response rating (0 to 100), Goosegrass", "setting": "[19]; preemergence, Rate 250 g/ha", "result": 100}, {"measurement": "Plant response rating (0 to 100), Goosegrass", "setting": "[19]; preemergence, Rate 500 g/ha", "result": 100}, {"measurement": "Plant response rating, Goosegrass", "setting": "[19]; preemergence, Rate 125 g/ha", "result": 100}, {"measurement": "Plant response rating (0 to 100), Ragweed, Common", "setting": "[20]; [23]", "result": 90}, {"measurement": "Plant response rating, Ragweed, Common", "setting": "[20]; Rate 125 g/ha", "result": 50}, {"measurement": "Plant response rating, Ragweed, Common", "setting": "[20]; Rate 250 g/ha", "result": 50}]}
